Patent US9968084B2, “Synergistic herbicidal composition containing penoxsulam, triclopyr and imazethapyr” (Dow AgroSciences LLC, priority 2011, dated 2018)

What was measured:
Experiment in all cases: Postemergence herbicidal activity of mixtures in the field (rice), visual weed control
Assay type in all cases: in vivo
[1] = tested on: Echinochloa crus-galli (ECHCG)
Experimental: (§1) Evaluation of Postemergence Herbicidal Activity of Mixtures in the Field
(§2) Field trials were conducted in rice using standard herbicide small plot research methodology. Plot size was 2×6 meter (m) with 4 replicates per treatment. The rice crop was grown using normal cultural practices for fertilization, seeding, watering, flooding and maintenance to ensure good growth of the crop and the weeds.
(§3) All treatments in the field trials were applied using a compressed air backpack sprayer calibrated to apply 187 liters per hectare (L/ha) spray volume. Commercially available products of the premix penoxsulam plus triclopyr (GraspXTRA® herbicide, trademark of Dow AgroSciences LLC) and imazethapyr or imazamox were mixed in water at appropriately formulated product rates to achieve the desired rates based on a unit area of application (hectare) to achieve the desired rates as shown. The GraspXTRA herbicide is a product that contains 0.25 lb penoxulam and 2.06 lb triclopyr triethylamine salt (1.5 lb acid equivalent) per gallon, so the weight ratio of the penoxulam to triclopyr acid equivalent is 1:6. Imazethapyr was used as Newpath 240 SL. imazamox was used as Beyond 120 SL. Treatments were rated at 15 to 63 days after application as compared to the untreated control plants. Visual weed control was scored on a scale of 0 to 100 percent where 0 corresponds to no injury and 100 corresponds to complete kill.
(§4) All treatment results, both for the single premix product, the single entity product and mixtures, are an average of 4 replicates and the tank mix interactions are significant at the […] level.
(§5) Colby's equation was used to determine the herbicidal effects expected from the mixtures (Colby, S. R. Calculation of the synergistic and antagonistic response of herbicide combinations. Weeds 1967, 15, 20-22.).
(§6) The following equation was used to calculate the expected activity of mixtures containing two active ingredients, A and B: Expected=A+B−(A×B/100)
(§7) A=observed efficacy of active ingredient A at the same concentration as used in the mixture.
(§8) B=observed efficacy of active ingredient B at the same concentration as used in the mixture.
(§9) All comparisons are an average of 4 replicates and are significant at the […] level. Rates of penoxsulam, triclopyr and imazethapyr or imazamox are expressed in grams active ingredient/hectare (g ai/ha).

Setaria spp. (SETSS) = conditions: imazethapyr 70 g ai/ha
Experimental: as §1, §2, §3, §4, §5, §6, §7, §8, §9

[2] = tested on: Brachiaria platyphylla (GRISEB.) NASH (BRAPP); conditions: imazamox 44 g ai/ha
Experimental: as §1, §2, §3, §4, §5, §6, §7, §8, §9

[3] = tested on: Caperonia palustris ST.-HIL. (CNPPA); conditions: imazamox 44 g ai/ha
Experimental: as §1, §2, §3, §4, §5, §6, §7, §8, §9

Structure (SMILES) | % Control 15DAA ECHCG Ob ([1]; imazethapyr 70 g ai/ha, 15 DAA) | % Control 63DAA ECHCG Ob ([1]; imazethapyr 70 g ai/ha, 63 DAA) | % Control 15DAA SETSS Ob (Setaria spp. (SETSS); 15 DAA) | % Control 63DAA SETSS Ob (Setaria spp. (SETSS); 63 DAA) | % Control 41 DAA BRAPP Ob [2] | % Control 43 DAA ECHCG Ob ([1]; imazamox 44 g ai/ha, 43 DAA) | % Control 43 DAA CNPPA Ob [3]
CCc1cnc(C2=NC(C)(C(C)C)C(=O)N2)c(C(=O)O)c1 (stereo not shown) [Imazethapyr, 2-[4,5-dihydro-4-methyl-4-(1-methylethyl)-5-oxo-1H-imidazol-2-yl]-5-ethyl-3-pyridinecarboxylic acid] | 69% | 36% | 69% | 36% |  |  | 
COCc1cnc(C2=NC(C)(C(C)C)C(=O)N2)c(C(=O)O)c1 (stereo not shown) [Imazamox, 2-[4,5-dihydro-4-methyl-4-(1-methylethyl)-5-oxo-1H-imidazol-2-yl]-5-(methoxymethyl)-3-pyridinecarboxylic acid] |  |  |  |  | 61% | 78% | 0%
